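Cells were grown in 96-well plates and exposed to each compound for 48 hours at five concentrations; endpoints were interpolated linearly between bracketing concentrations, or set to the highest concentration if not reached. GI50 marks 50% less growth.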 Active and inactive are the calls of the source. No stated cut-off is given here; in the data, active = GI50 up to about 1.1 µM and inactive = higher.
Columns and labels:
Experiment in all cases: NCI anticancer screen, dose series, 48 h
[1] = system: 786-0
[2] = system: A498
[3] = system: A549
[4] = system: ACHN
[5] = system: CAKI-1
[6] = system: CCRF-CEM
[7] = system: COLO 205
[8] = system: DLD-1
[9] = system: DMS-114
[10] = system: DMS-273
[11] = system: EKVX
[12] = system: HCC 2998
[13] = system: HCT-116
[14] = system: HCT-15
[15] = system: HL-60
[16] = system: HOP-18
[17] = system: HOP-62
[18] = system: HOP-92
[19] = system: HT-29
[20] = system: IGROV-1
[21] = system: KM-20L2
[22] = system: KM12
[23] = system: LXFL 529
[24] = system: M14
[25] = system: M19-MEL
[26] = system: MOLT-4
[27] = system: Malme-3M
[28] = system: NCI-H226
[29] = system: NCI-H23
[30] = system: NCI-H460
[31] = system: NCI-H522
[32] = system: OVCAR-3
[33] = system: OVCAR-4
[34] = system: OVCAR-8
[35] = system: RXF 393
[36] = system: RXF 631
[37] = system: SF-268
[38] = system: SF-295
[39] = system: SF-539
[40] = system: SK-MEL-28
[41] = system: SK-MEL-2
[42] = system: SK-MEL-5
[43] = system: SK-OV-3
[44] = system: SN12C
[45] = system: SNB-19
[46] = system: SNB-75
[47] = system: SNB-78
[48] = system: SR
[49] = system: SW-620
[50] = system: TK-10
[51] = system: U-251
[52] = system: UACC-257
[53] = system: UACC-62
[54] = system: UO-31
[55] = system: XF498

CCOc1ccccc1NC(=O)C(=O)Cc1nc2ccccc2s1
GI50 [1]: > 100 µM (inactive) | GI50 [2]: > 100 µM (inactive) | GI50 [3]: > 100 µM (inactive) | GI50 [4]: > 100 µM (inactive) | GI50 [5]: > 100 µM (inactive) | GI50 [6]: > 100 µM (inactive) | GI50 [7]: > 100 µM (inactive) | GI50 [8]: > 100 µM (inactive) | GI50 [9]: > 100 µM (inactive) | GI50 [10]: > 100 µM (inactive) | GI50 [11]: > 100 µM (inactive) | GI50 [12]: > 100 µM (inactive) | GI50 [13]: > 100 µM (inactive) | GI50 [14]: > 100 µM | GI50 [15]: > 100 µM (inactive) | GI50 [16]: > 100 µM (inactive) | GI50 [17]: > 100 µM (inactive) | GI50 [18]: > 100 µM (inactive) | GI50 [19]: > 100 µM (inactive) | GI50 [20]: > 100 µM (inactive) | GI50 [21]: > 100 µM (inactive) | GI50 [22]: > 100 µM (inactive) | GI50 [23]: > 100 µM (inactive) | GI50 [24]: > 100 µM (inactive) | GI50 [25]: > 100 µM (inactive) | GI50 [26]: > 100 µM (inactive) | GI50 [27]: > 100 µM (inactive) | GI50 [28]: > 100 µM (inactive) | GI50 [29]: > 100 µM (inactive) | GI50 [30]: > 100 µM (inactive) | GI50 [31]: > 100 µM (inactive) | GI50 [32]: > 100 µM (inactive) | GI50 [33]: 90.4 µM (inactive) | GI50 [34]: > 100 µM (inactive) | GI50 [35]: > 100 µM (inactive) | GI50 [36]: > 100 µM (inactive) | GI50 [37]: > 100 µM (inactive) | GI50 [38]: > 100 µM (inactive) | GI50 [39]: > 100 µM (inactive) | GI50 [40]: > 100 µM (inactive) | GI50 [41]: > 100 µM (inactive) | GI50 [42]: > 100 µM (inactive) | GI50 [43]: > 100 µM (inactive) | GI50 [44]: > 100 µM (inactive) | GI50 [45]: > 100 µM (inactive) | GI50 [46]: 77.1 µM (inactive) | GI50 [47]: > 100 µM (inactive) | GI50 [48]: > 100 µM (inactive) | GI50 [49]: > 100 µM (inactive) | GI50 [50]: > 100 µM (inactive) | GI50 [51]: > 100 µM (inactive) | GI50 [52]: > 100 µM (inactive) | GI50 [53]: > 100 µM (inactive) | GI50 [54]: > 100 µM (inactive) | GI50 [55]: > 100 µM (inactive)

From ChEMBL document CHEMBL1201862, “PubChem BioAssay data set” (2004)
